Reference: article PMC11992618, “Development of cyclopeptide inhibitors specifically disrupting FXR–coactivator interaction in the intestine as a novel therapeutic strategy for MASH” (Life Metabolism, 2025)

Molecular target: T1, PPARδ (Homo sapiens, UniProt Q03181)
T1 sequence (Q03181 1-441): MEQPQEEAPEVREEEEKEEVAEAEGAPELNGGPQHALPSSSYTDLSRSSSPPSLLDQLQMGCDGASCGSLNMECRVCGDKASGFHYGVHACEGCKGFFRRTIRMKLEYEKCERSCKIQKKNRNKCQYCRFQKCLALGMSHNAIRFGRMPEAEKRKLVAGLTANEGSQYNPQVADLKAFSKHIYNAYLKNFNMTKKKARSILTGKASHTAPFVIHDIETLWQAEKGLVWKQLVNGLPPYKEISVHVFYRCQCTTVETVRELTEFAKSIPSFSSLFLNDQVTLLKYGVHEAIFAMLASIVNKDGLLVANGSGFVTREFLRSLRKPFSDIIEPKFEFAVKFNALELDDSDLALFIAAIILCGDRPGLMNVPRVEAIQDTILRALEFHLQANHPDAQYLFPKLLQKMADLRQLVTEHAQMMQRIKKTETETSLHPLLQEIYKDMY
Assay: PPARδ cell-based reporter assay
Settings: 10 μmol/L; inhibition of agonist-induced receptor activation
Source text: Inhibition% means inhibition percentage of agonist-induced receptor activation.

Work on `CC(C)C[C@@H]1NC(=O)[C@@H]2CN(CCO2)c2cccc3c2c(cn3[Si](C(C)C)(C(C)C)C(C)C)C[C@H](NS(=O)(=O)C(F)(F)F)C(=O)OCCCCNC(=O)[C@H](CC(C)C)NC(=O)[C@@H]2CN(CCO2)c2cccc3c2c(cn3[Si](C(C)C)(C(C)C)C(C)C)C[C@H](NS(=O)(=O)C(F)(F)F)C(=O)OCCCCNC1=O` [DC646, N,N'-((1^2R,1^4S,16^2R,16^4S,4R,13R,19R,28R)-13,28-diisobutyl-5,12,15,20,27,30-hexaoxo-2^1,17^1-bis(triisopropylsilyl)-2^1H,17^1H-6,21-dioxa-11,14,26,29-tetraaza-1(4,2),16(2,4)-dimorpholina-2,17(4,3)-diindolacyclotriacontaphane-4,19-diyl)bis(1,1,1-trifluoromethanesulfonamide)] yielded an inhibition at 10 µM of 18.9%.
